Measured values: patent US10172814B2, “Substituted pyridyl-cycloalkyl-carboxylic acids, compositions containing them and medical uses thereof” (BAYER PHARMA AKTIENGESELLSCHAFT, priority 2014, dated 2019)

Target: human PTGES (Homo sapiens (Human), UniProt O14684)
Assay: Human PTGES biochemical enzyme inhibition assay (conversion of PGH2 to PGE2, TR-FRET)
Settings: Enzymatic conversion of PGH2 to PGE2; read-out: Human PTGES IC50
How it was run: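 FLAG-tagged human PTGES from Hi-5 insect cells preincubated 15–20 min with compound in pH 7.2 phosphate buffer with 2.5 mM reduced glutathione; reaction started with 8 nM PGH2 final, stopped with SnCl2/KF.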

Chain of human PTGES (O14684 whole entry): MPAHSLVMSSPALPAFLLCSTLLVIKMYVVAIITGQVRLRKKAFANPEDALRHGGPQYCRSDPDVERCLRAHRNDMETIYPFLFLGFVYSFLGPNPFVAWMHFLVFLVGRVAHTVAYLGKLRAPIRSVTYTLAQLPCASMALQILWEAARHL

Row | Structure (SMILES) | IC50
1 | Cc1ncc(-c2ccc(C(C(=O)Nc3cccc(C(C)CC(=O)O)c3C)C3CCCC3)cc2F)cc1Cl (single isomer, unassigned; stereoisomer 4) [Example 124, 3-[3-({[4-(5-Chloro-6-methylpyridin-3-yl)-3-fluorophenyl](cyclopentyl)acetyl}amino)-2-methylphenyl]butanoic acid, Stereoisomer 4] | 5.06 nM
2 | CCOc1cncc(-c2ccc(C(C(=O)Nc3cccc(CCC(=O)O)c3C)C3CCCC3)cc2F)c1 (racemic) [Example 46, (R/S) 3-[3-({Cyclopentyl[4-(5-ethoxypyridin-3-yl)-3-fluorophenyl]acetyl}amino)-2-methylphenyl]propanoic acid] | 55.3 nM
3 | CCOc1cncc(-c2ccc(C(C(=O)Nc3cccc(CCC(=O)O)c3C)C3CCC3)cc2)c1 (racemic) [Example 58, (R/S) 3-[3-({Cyclobutyl[4-(5-ethoxypyridin-3-yl)phenyl]acetyl}amino)-2-methylphenyl]propanoic acid] | 210 nM
4 | Cc1c(NC(=O)C(c2ccc(-c3cncc(C(F)(F)F)c3)cc2)C2CCCC2)cccc1OCC(=O)O (single isomer, unassigned; (-)) [Example 34, (−) {3-[(Cyclopentyl{4-[5-(trifluoromethyl)pyridin-3-yl]phenyl}acetyl)amino]-2-methylphenoxy}acetic acid] | 9.85 nM
5 | Cc1c(NC(=O)C(c2ccc(-c3cncc(C(F)(F)F)c3)c(F)c2)C2CCC2)cccc1C(C)CC(=O)O (single isomer, unassigned; stereoisomer 1) [Example 147, 3-{3-[(Cyclobutyl{3-fluoro-4-[5-(trifluoromethyl)pyridin-3-yl]phenyl}acetyl)amino]-2-methylphenyl}butanoic acid, Stereoisomer 1] | 1310 nM
6 | Cc1c(NC(=O)C(c2ccc(-c3cncc(C(F)(F)F)c3)cc2)C2CCCC2)cccc1C(CC(=O)O)C1CC1 (mixture of isomers) [Example 109, (3R/S)-3-(3-{[(2R/S)-2-cyclopentyl-2-{4-[5-(trifluoromethyl)pyridin-3-yl]phenyl}acetyl]amino}-2-methylphenyl)-3-cyclopropylpropanoic acid] | 24.9 nM
7 | Cc1c(NC(=O)C(c2ccc(-c3cncc(C(F)(F)F)c3)c(F)c2)C2CCC2)cccc1C(C)CC(=O)O (mixture of isomers) [Example 146, 3-{3-[(Cyclobutyl{3-fluoro-4-[5-(trifluoromethyl)pyridin-3-yl]phenyl}acetyl)amino]-2-methylphenyl}butanoic acid, Stereoisomeric Mixture 1] | 12.6 nM
8 | Cc1c(CCC(=O)O)cccc1NC(=O)C(c1ccc(-c2cncc(C(F)(F)F)c2)c(F)c1)C1CCCC1 (single isomer, unassigned; (+)) [Example 49, (+) 3-{3-[(Cyclopentyl{3-fluoro-4-[5-(trifluoromethyl)pyridin-3-yl]phenyl}acetyl)amino]-2-methylphenyl}propanoic acid] | 530 nM
9 | Cc1c(NC(=O)C(c2ccc(-c3cncc(Cl)c3)cc2)C2CCC2)cccc1C(C)CC(=O)O (single isomer, unassigned; stereoisomer 2) [Example 137] | 2900 nM
10 | Cc1c(NC(=O)C(c2ccc(-c3cncc(Cl)c3)c(F)c2)C2CCCC2)cccc1C(C)CC(=O)O (mixture of isomers) [Example 125, (3R/S)-3-[3-({(2R/S)-2-[4-(5-Chloropyridin-3-yl)-3-fluorophenyl]-2-cyclopentylacetyl}amino)-2-methylphenyl]butanoic acid] | 22.9 nM
11 | COCc1cncc(-c2ccc(C(C(=O)Nc3cccc(CCC(=O)O)c3C)C3CCCC3)cc2)c1 (racemic) [Example 10, (R/S) 3-{3-[(Cyclopentyl{4-[5-(methoxymethyl)pyridin-3-yl]phenyl}acetyl)amino]-2-methylphenyl}propanoic acid] | 470 nM
12 | Cc1c(NC(=O)C(c2ccc(-c3cncc(C(F)(F)F)c3)cc2)C2CCCC2)cccc1C1CC1C(=O)O (centres unmarked) [Example 156, 2-(3-{[2-cyclopentyl-2-{4-[5-(trifluoromethyl)pyridin-3-yl]phenyl}acetyl]amino}-2-methylphenyl)cyclopropanecarboxylic acid] | 32.9 nM
13 | Cc1cc(C(C(=O)Nc2cccc(CCC(=O)O)c2C)C2CCCC2)c(F)cc1-c1cncc(C(F)(F)F)c1 (racemic) [Example 183, (R/S) 3-{3-[(cyclopentyl{2-fluoro-5-methyl-4-[5-(trifluoromethyl)pyridin-3-yl]phenyl}acetyl)amino]-2-methylphenyl}propanoic acid] | 1000 nM
14 | Cc1c(CCC(=O)O)cccc1NC(=O)[C@@H](c1ccc(-c2cncc(CC(F)(F)F)c2)cc1)C1CCCC1 [Example 191, 3-(3-{[(2R)-2-cyclopentyl-2-{4-[5-(2,2,2-trifluoroethyl)pyridin-3-yl]phenyl}acetyl]amino}-2-methylphenyl)propanoic acid] | 60.1 nM
15 | Cc1c(NC(=O)C(c2ccc(-c3cncc(C(F)(F)F)c3)c(F)c2)C2CCCC2)cccc1C(C)CC(=O)O (single isomer, unassigned; stereoisomer 1) [Example 116, 3-{3-[(Cyclopentyl{3-fluoro-4-[5-(trifluoromethyl)pyridin-3-yl]phenyl}acetyl)amino]-2-methylphenyl}butanoic acid, Stereoisomer 1] | 3.49 nM
16 | Cc1cc(C(C(=O)Nc2cccc(CCC(=O)O)c2C)C2CCCC2)c(Cl)cc1-c1cncc(Cl)c1 (racemic) [Example 172, (R/S) 3-[3-({[2-chloro-4-(5-chloropyridin-3-yl)-5-methylphenyl](cyclopentyl)acetyl}amino)-2-methylphenyl]propanoic acid] | 1860 nM
17 | Cc1cc(C(C(=O)Nc2cccc(CCC(=O)O)c2C)C2CCCC2)c(Cl)cc1-c1cnc(C)c(Cl)c1 (racemic) [Example 174, (R/S) 3-[3-({[2-chloro-4-(5-chloro-6-methylpyridin-3-yl)-5-methylphenyl](cyclopentyl)acetyl}amino)-2-methylphenyl]propanoic acid] | 444 nM
18 | Cc1c(NC(=O)C(c2ccc(-c3cncc(Cl)c3)c(F)c2)C2CCC2)cccc1C(C)CC(=O)O (single isomer, unassigned; stereoisomer 2) [Example 151, 3-[3-({[4-(5-Chloropyridin-3-yl)-3-fluorophenyl](cyclobutyl)acetyl}amino)-2-methylphenyl]butanoic acid, Stereoisomer 2] | 46.5 nM
19 | Cc1ncc(-c2ccc(C(C(=O)Nc3cccc(C(C)CC(=O)O)c3C)C3CCCC3)cc2F)cc1Cl (single isomer, unassigned; stereoisomer 3) [Example 123, 3-[3-({[4-(5-Chloro-6-methylpyridin-3-yl)-3-fluorophenyl](cyclopentyl)acetyl}amino)-2-methylphenyl]butanoic acid, Stereoisomer 3] | 646 nM
20 | Cc1c(CCC(=O)O)cccc1NC(=O)C(c1ccc(-c2cncc(C(F)F)c2)c(F)c1)C1CCCC1 (racemic) [Example 50, (R/S) 3-{3-[(cyclopentyl{4-[5-(difluoromethyl)pyridin-3-yl]-3-fluorophenyl}acetyl)amino]-2-methylphenyl}propanoic acid] | 42.9 nM
21 | Cc1ncc(-c2ccc(C(C(=O)Nc3cccc(CCC(=O)O)c3C)C3CCCC3)cc2Cl)cc1Cl (racemic) [Example 176, (R/S) 3-[3-({[3-chloro-4-(5-chloro-6-methylpyridin-3-yl)phenyl](cyclopentyl)acetyl}amino)-2-methylphenyl]propanoic acid] | 198 nM
22 | Cc1c(CCC(=O)O)cccc1NC(=O)C(c1ccc(-c2cncc(OC(F)F)c2)cc1)C1CCC1 (racemic) [Example 63, (R/S) 3-{3-[(Cyclobutyl{4-[5-(difluoromethoxy)pyridin-3-yl]phenyl}acetyl)amino]-2-methylphenyl}propanoic acid] | 103 nM
23 | Cc1c(CCC(=O)O)cccc1NC(=O)C(c1ccc(-c2cncc(Cl)c2)cc1)C1CCCCC1 (racemic) [Example 65, (R/S) 3-[3-({[4-(5-Chloropyridin-3-yl)phenyl](cyclohexyl)acetyl}amino)-2-methylphenyl]propanoic acid] | 196 nM
24 | Cc1cncc(-c2ccc(C(C(=O)Nc3cccc(CCC(=O)O)c3C)C3CCC3)cc2)c1 (racemic) [Example 64, (R/S) 3-[3-({Cyclobutyl[4-(5-methylpyridin-3-yl)phenyl]acetyl}amino)-2-methylphenyl]propanoic acid] | 344 nM
25 | Cc1cncc(-c2ccc(C(C(=O)Nc3cccc(CCC(=O)O)c3C)C3CCCC3)cc2)c1 (racemic) [Example 21, (R/S) 3-[3-({Cyclopentyl[4-(5-methylpyridin-3-yl)-phenyl]acetyl}amino)-2-methylphenyl]propanoic acid] | 161 nM
26 | Cc1c(NC(=O)C(c2ccc(-c3cncc(C(F)(F)F)c3)c(F)c2)C2CCCC2)cccc1C(C)CC(=O)O (mixture of isomers) [Example 115, (3R/S)-3-(3-{[(2R/S)-2-Cyclopentyl-2-{3-fluoro-4-[5-(trifluoromethyl)pyridin-3-yl]phenyl}acetyl]amino}-2-methylphenyl)butanoic acid] | 18.5 nM
27 | Cc1c(NC(=O)C(c2ccc(-c3cncc(Cl)c3)cc2)C2CCC2)cccc1C(C)CC(=O)O (single isomer, unassigned; stereoisomer 1) [Example 136] | 12.7 nM
28 | Cc1ncc(-c2ccc(C(C(=O)Nc3cccc(CC(C)C(=O)O)c3C)C3CCCC3)cc2)cc1F (centres unmarked) [Example 82, (2R/2S)-3-[3-({(2R/2S)-2-Cyclopentyl-2-[4-(5-fluoro-6-methylpyridin-3-yl)phenyl]acetyl}amino)-2-methylphenyl]-2-methylpropanoic acid] | 90.6 nM
29 | Cc1ncc(-c2ccc(C(C(=O)Nc3cccc(C(C)CC(=O)O)c3C)C3CCCC3)cc2)cc1Cl (mixture of isomers) [Example 97, (3R/S)-3-[3-({(2R/S)-2-[4-(5-Chloro-6-methylpyridin-3-yl)phenyl]-2-cyclopentylacetyl}amino)-2-methylphenyl]butanoic acid] | 13 nM
